Results taken from the RepoRT retention time repository (doi:10.1016/j.foodchem.2015.11.070).

Test: Thermo Scientific Hypersil GOLD aQ, 100 × 2.1 mm, 1.9 µm, 30 °C, 0.3 mL/min, estimated dead time 0.73 min; A: water + 0.01% formic acid + 4 mM ammonium formate; B: methanol + 0.01% formic acid + 4 mM ammonium formate; gradient (min/%B) 0/5 1/5 8/100 12/100
Conditions: stereoisomer not certain

SMILES	LC retention time [min]
Cc1cc(=O)[nH]o1	5.67
CNC(=O)Oc1cc(C)cc(C(C)C)c1	9.52
CCOP(=S)(OCC)SCCSCC	10.4
CCOC(=O)Nc1cccc(OC(=O)Nc2ccccc2)c1	9.23
CC(Cc1ccc(C(C)(C)C)cc1)CN1CCCCC1 (stereo not given)	9.29
CCOP(=S)(Oc1ccc([N+](=O)[O-])cc1)c1ccccc1 (stereo not given)	9.71
CCCCC(C)C(OC(=O)CC(CC(=O)O)C(=O)O)C(CC(C)CCCCCCC(O)CC(O)C(C)N)OC(=O)CC(CC(=O)O)C(=O)O (stereo not given)	7.46
CCOc1ccc(NC(=O)OC(C)C)cc1OCC	9.37
COc1cc2c(c3oc(=O)c4c(c13)CCOC4=O)C1C=COC1O2 (stereo not given)	8
COP(=S)(OC)SCn1nnc2ccccc2c1=O	9.38
COC(=O)c1ccccc1S(=O)(=O)NC(=O)Nc1nc(C)nc(OC)n1	8.43
CCOC(=O)c1cn2nc(OP(=S)(OCC)OCC)cc2nc1C	10.4
CON=C(C(=O)OC)c1ccccc1COc1ccccc1C	10.1
CNC(=O)ON=C(C)C(C)S(C)=O (stereo not given)	3.06
CNC(=O)ON=C(C)SC	6.05
CNC(=O)ON=C(C)C(C)SC (stereo not given)	7.89
C=CC=CCC1=C(C)C(OC(=O)C2C(C=C(C)C(=O)OC)C2(C)C)CC1=O (stereo not given)	10.3
CCOc1cc(OP(=S)(OC)OC)nc(CC)n1	10.2
CCCC(=NOCC)C1=C(O)CC(C2CCCSC2)CC1=O (stereo not given)	10.5
C=C(C)C1Cc2c(ccc3c2OC2COc4cc(OC)c(OC)cc4C2C3=O)O1 (stereo not given)	10.3
CCC1CCCC(OC2CCC(N(C)C)C(C)O2)C(C)C(=O)C2=CC3C(C=CC4CC(OC5OC(C)C(OC)C(OC)C5OC)CC43)C2CC(=O)O1 (stereo not given)	10.3
CCC(CC)Nc1c([N+](=O)[O-])cc(C)c(C)c1[N+](=O)[O-]	11.1
COC(=O)C(C)N(C(=O)c1ccco1)c1c(C)cccc1C (stereo not given)	9.38
CCOP(=S)(Oc1ccc(C#N)cc1)c1ccccc1 (stereo not given)	8.72

SMILES	LC retention time [min]
CCOP(=S)(OCC)SCCS(=O)(=O)CC	8.89
CCC(C)c1cc([N+](=O)[O-])cc([N+](=O)[O-])c1OC(=O)OC(C)C (stereo not given)	9.22
CNC(=O)ON=CC(C)(C)SC	7.89
COc1cc2c(c3oc(=O)c4c(c13)CCC4=O)C1C=COC1O2 (stereo not given)	8.44
CNC(=O)Oc1cc(C)c(S(C)=O)c(C)c1 (stereo not given)	7.09
CC(C)OC(=O)Nc1ccccc1	8.61
CCCC(=NOCC)C1=C(O)CC(CC(C)SCC)CC1=O (stereo not given)	10.7
CNC(=O)Oc1cccc(N=CN(C)C)c1	7.91
CCOP(=S)(OCC)Oc1ccc([N+](=O)[O-])cc1	9.21
CN(C)c1nc(=O)n(C2CCCCC2)c(=O)n1C	8.61
COP(=O)(OC)Oc1ccc([N+](=O)[O-])cc1	8.12
CCOP(=S)(NC(C)C)Oc1ccccc1C(=O)OC(C)C (stereo not given)	7.91
CCSCCSP(=S)(OC)OC	8.94
CCCN(CC)CC1COC2(CCC(C(C)(C)C)CC2)O1 (stereo not given)	9.58
Cc1nc(N(C)C)nc(OC(=O)N(C)C)c1C	7.91
COC(=O)Nc1nc2ccccc2[nH]1	6.3
CCOC(=O)CC(SP(=S)(OC)OC)C(=O)OCC (stereo not given)	9.59
CNC(=O)Oc1cccc2ccccc12	8.61
CCOP(=S)(OCC)SCSCC	8.44
COCC(=O)N(c1c(C)cccc1C)N1CCOC1=O	8.04
COP(=O)(NC(C)=O)SC (stereo not given)	1.58
CCOP(=O)(NC(C)C)Oc1ccc(S(C)=O)c(C)c1 (stereo not given)	8.44
CC(C)c1ccc(NC(=O)N(C)C)cc1	9.15
Cc1ccc2nc3sc(=O)sc3nc2c1	9.19

SMILES	LC retention time [min]
CC(=O)OCC12CC(OC(=O)CC(C)C)C(C)=CC1OC1C(O)C(OC(C)=O)C2(C)C12CO2 (stereo not given)	9.3
CCOP(=O)(NC(C)C)Oc1ccc(SC)c(C)c1 (stereo not given)	9.99
CCNc1nc(NC(C)(C)C)nc(SC)n1	9.65
Cc1ccc(N=CN(C)C=Nc2ccc(C)cc2C)c(C)c1	9.09
CCCCOC(=O)N(C)SN(C)C(=O)Oc1cccc2c1OC(C)(C)C2	10.6
CCOP(=S)(OCC)Oc1cnc2ccccc2n1	10.2
COP(=S)(OC)Oc1ccc(SC)c(C)c1	10.2
CCSCc1ccccc1OC(=O)NC	8.76
COC(=O)NC(=S)Nc1ccccc1NC(=S)NC(=O)OC	8.31
c1ccc(Nc2ccccc2)cc1	6.3
CCOP(=S)(OCC)Oc1ccc(S(C)=O)cc1 (stereo not given)	9.1
CCS(=O)(=O)Cc1ccccc1OC(=O)NC	7
CCCCOCCOCCOCc1cc2c(cc1CCC)OCO2	10.8
COP(N)(=S)Oc1ccccc1C(=O)OC(C)C (stereo not given)	9.04
Cc1cc(C)c(C2=C(OC(=O)CC(C)(C)C)C3(CCCC3)OC2=O)c(C)c1	10.9
CCOP(=S)(OCC)SCSP(=S)(OCC)OCC	10.8
CC(C)N1C(=O)N(c2ccccc2)CSC1=NC(C)(C)C	10.7
CCS(=O)CCSP(=O)(OC)OC (stereo not given)	6.04
CCCCN(CCCC)SN(C)C(=O)Oc1cccc2c1OC(C)(C)C2	11.1
CN(C)NC(=O)CCC(=O)O	1.58
CNC(=O)CSP(=S)(OC)OC	7.18
COP(=O)(OC)OC(C)=CC(=O)N(C)C	6.63
Cc1ccc(OP(=O)(Oc2ccc(C)cc2)Oc2ccc(C)cc2)cc1	11.9
CC(C)C1(C)N=C(c2ncccc2C(=O)O)NC1=O (stereo not given)	6.79

SMILES	LC retention time [min]
CNC(=O)ON=C(CS(C)=O)C(C)(C)C (stereo not given)	6.31
CCOC(=O)N(C)C(=O)CSP(=S)(OCC)OCC	9.84
CC=C(C)C(=O)OC1CC(OC(C)=O)C2(C(=O)OC)COC3C2C12COC(O)(C(=O)OC)C2C(C)(C12OC1(C)C1CC2OC2OC=CC21O)C3O (stereo not given)	8.67
C=CC=CCC1=C(C)C(OC(=O)C2C(C=C(C)C)C2(C)C)CC1=O (stereo not given)	11
CCOC(=O)C(SP(=S)(OC)OC)c1ccccc1 (stereo not given)	10.1
CCOP(=O)(SC(C)CC)N1CCSC1=O (stereo not given)	8.81
CC(Cc1ccc(C(C)(C)C)cc1)CN1CC(C)OC(C)C1 (stereo not given)	9.38
c1ccc2[nH]c(-c3cscn3)nc2c1	6.96
CNC(=O)C=C(C)OP(=O)(OC)OC	6.58
CC(COc1ccc(Oc2ccccc2)cc1)Oc1ccccn1 (stereo not given)	10.9
CCOP(=S)(OCC)Oc1cc(C)nc(N(CC)CC)n1	10.7
COP(=S)(NC(C)C)Oc1ccccc1C(=O)OC(C)C (stereo not given)	8.98
CNC(=O)ON=C(CS(C)(=O)=O)C(C)(C)C	6.92
COc1cc2c(c3oc(=O)c4c(c13)CCOC4=O)C1CCOC1O2 (stereo not given)	7.8
COC(=O)C=C(C)OP(=O)(OC)OC	7.66
CNC(=O)ON=C(C)C(C)S(C)(=O)=O (stereo not given)	7.37
CCOP(=S)(OCC)SCSC(C)(C)C	7.2
CCc1ccc(C(=O)NN(C(=O)c2cc(C)cc(C)c2)C(C)(C)C)cc1	9.99
Cc1nnc(-c2ccccc2)c(=O)n1N	7.23
CCOP(=S)(OCC)Oc1cc(C)nc(C(C)C)n1	10.2
O=c1[nH]c2c(c(=O)n1C1CCCCC1)CCC2	9.11
Cc1nn(C)c(Oc2ccccc2)c1C=NOCc1ccc(C(=O)OC(C)(C)C)cc1	11.2
CCOP(=S)(OCC)OP(=S)(OCC)OCC	10.1
COC(=O)c1ccccc1CS(=O)(=O)NC(=O)Nc1nc(OC)cc(OC)n1	9.3

SMILES	LC retention time [min]
COP(=S)(OC)Oc1ccc([N+](=O)[O-])cc1	9.96
CCCN(CCC)C(=O)SCC	10.1
CNC(=O)ON=CC(C)(C)S(C)(=O)=O	7.37
COCCOc1ccccc1S(=O)(=O)NC(=O)Nc1nc(OC)nc(OC)n1	8.14
CC1=NNC(=O)N(N=Cc2cccnc2)C1	1.58
CCOP(=O)(SC(C)CC)SC(C)CC (stereo not given)	10.5
CC(C)N1C(=O)c2ccccc2NS1(=O)=O	8.26
CC(C)(C)C(O)C(Oc1ccc(-c2ccccc2)cc1)n1cncn1 (stereo not given)	10.3
CNc1nc(NC(C)C)nc(SC)n1	8.62
CCN(CC)c1nc(C)cc(OP(=S)(OC)OC)n1	10.3
CCOC1Oc2ccc(OS(C)(=O)=O)cc2C1(C)C (stereo not given)	9.42
C#CCOS(=O)OC1CCCCC1Oc1ccc(C(C)(C)C)cc1 (stereo not given)	10.9
COP(=S)(OC)SCC(=O)N(C)C=O	8.06
CCCSP(=O)(OCC)SCCC	9.93
CCOP(=S)(OCC)SCCS(=O)CC (stereo not given)	8.89
CC(C)=CC1C(C(=O)OCN2C(=O)C3=C(CCCC3)C2=O)C1(C)C (stereo not given)	10.7
CC(=O)OCC12CC(OC(=O)CC(C)C)C(C)=CC1OC1C(O)C(O)C2(C)C12CO2 (stereo not given)	8.35
CNC(=O)C(C)SCCSP(=O)(OC)OC (stereo not given)	7.11
CNC(=O)CSP(=O)(OC)OC	1.79
CCCN(CCC)C(=O)SCc1ccccc1	10.6
CCNc1nc(NC(C)C)nc(SC)n1	9.18
CC1CCCC(=O)CCCC=Cc2cc(O)cc(O)c2C(=O)O1 (stereo not given)	9.87
COP(=S)(OC)SCN1C(=O)c2ccccc2C1=O	9.39
CCCSP(=S)(OCC)Oc1ccc(SC)cc1 (stereo not given)	11
